Columns and labels:
[1] = tested on: CWR22Rv1 cells or VCaP cells; assay: Xenograft tumor growth in SCID mice; format: in vivo, Male SCID mice; conditions: 5 or 30 mg/kg, IP, BID
Procedure: Mice: Male SCID mice (CB17/Icr-Prkdcscid/IcrIcoCrlBltw, 4-6 weeks old, purchased from BioLASCO Taiwan Co., Ilan, Taiwan.)
The cells were harvested when CWR22Rv1 cells or VCaP cells were cultured to exponential growth phase, and then the cells were washed twice with PBS. Then, for CWR22Rv1 cells, 5×10^6 cells were suspended in 100 μL PBS containing 33% Matrigel to form a cell suspension; for VCaP cells, 3×10^6 cells were suspended in 100 μL PBS containing 50% Matrigel to form a cell suspension cell suspension. Then, the above cell suspension was subcutaneously implanted into the right back of male SCID mice with a 25G needle.
After cell inoculation, when the average tumor volume reached […] or the tumor clearly began to grow, the mice were divided into a vehicle-treated group (n=4-8), 5 mg/kg Compound 1 treated group (n=4-8) and 30 mg/kg Compound 1 treatment group (n=4-8), and administered by intraperitoneal injection (IP), twice daily (BID). The vehicle was 10% N-methylpyrrolidone (NMP, N-Methyl-2-pyrrolidone) and 20% castor oil polyoxyethylene ether (Cremophor EL) in PBS buffer solution. Tumor volume and animal body weight were determined three times a week after dosing.
Tumor size was measured with a caliper and converted to tumor volume (cm^3; V) using the formula: V=0.5×[Length×(Width)^2]
Antitumor activity was expressed as tumor growth inhibition (TGI). […]

VCaP cells = assay: Cytotoxicity assay (AlamarBlue, 72 hours); format: cell-based; conditions: 72 hours treatment, concentration not given
Procedure, shortened: (§1)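 CWR22Rv1 or VCaP cells in RPMI-1640 with 10% FBS were seeded at 1×10^4 cells/well. Next day they were treated with compound, test samples at 100, 10, 1 and 0.1 μM, giving 1% DMSO final. After 72 h, AlamarBlue was added for 4 h, fluorescence was read at Ex/Em 560/590 nm, and % cytotoxicity was calculated.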

CWR22RV1 cells = assay: Cytotoxicity assay (AlamarBlue, 72 hours); format: cell-based; conditions: 72 hours treatment, concentration not given
Procedure, shortened: as §1

[2] = tested on: full-length androgen receptor; assay: Western blot: degradation of full-length androgen receptor in CWR22RV1 cells; format: cell-based; conditions: overnight
Procedure, shortened: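 CWR22Rv1 cells (5×10^5 per well) seeded overnight in RPMI with 10% FBS at 37 °C, 5% CO2, then given fresh medium and compound at various concentrations overnight. Lysates analysed by Western blot for full-length AR and AR-V7, with GAPDH as loading control.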

Cc1ncsc1-c1ccc(CNC(=O)[C@@H]2C[C@H](O)CN2C(=O)[C@@H](NC(=O)COCCCCOc2ccc(C3CCN(C4=Nn5c(nnc5C(F)(F)F)CC4)CC3)cc2)C(C)(C)C)cc1 [Compound 1, (2S,4S)-1-((S)-3,3-dimethyl-2-(2-(4-(4-(1-(3-(trifluoromethyl)-7,8-dihydro-[1,2,4]triazolo[4,3-b]pyridazin-6-yl)piperidin-4-yl)phenoxy)butoxy)acetamido)butanoyl)-4-hydroxy-N-(4-(4-methylthiazol-5-yl)benzyl)pyrrolidine-2-carboxamide]
Increase in tumor size compared to vehicle treatment [1]: tends to slow down | Cytotoxicity, VCaP cells (cell viability %) (VCaP cells): +++ (<40% : +++) | Cytotoxicity, CWR22RV1 cells (cell viability %) (CWR22RV1 cells): +++ (<40% : +++) | Degradation ability for full-length androgen receptor (residual rate %) ([2]; compound concentration 0.1 (unit not given)): + (60-80%: +) | Degradation ability for full-length androgen receptor (residual rate %) ([2]; compound concentration 1 (unit not given)): + (60-80%: +) | Degradation ability for full-length androgen receptor (residual rate %) ([2]; compound concentration 10 (unit not given)): +++ (<40%: +++)

From US12152035B2, “Androgen receptor binding molecule and use thereof” (Industrial Technology Research Institute, priority 2020, dated 2024)
